A short description of series [1]: Fluorescence spectroscopy of the sensors (excitation and emission). Type of series: physicochemical. On the procedure: Fluorescence spectroscopy was performed on a bench top Perkin-Elmer Enspire Multimode Plate Reader. […] 5 replicates of each sensor-metal or sensor-complex solution were used. […] Fluorescence responses to analytes were determined using integrated emission intensity, and for each sensor a control well containing no analyte was included to normalise the response for analysis.
The sensors were tested using the procedure described in Example 4, and the obtained data was analysed using LDA. […] Sensors S1-S9 were used in subsequent experiments.

With `Cc1cc(=O)oc2c(CN(CC(=O)O)CC(=O)O)c(O)ccc12` [S5], in series [1], the “excitation wavelength (maximum excitation wavelength of the sensor)” value (“excitation wavelength” for short) is 380 nm.
One may read the melting point as the temperature, or range, at which the solid turns liquid. `S=C(S)n1ncc2ccccc21` [formula X, 1H-indazole-1-carbodithioic acid] gave a melting point of 220 °C.
Take `O=C1c2ccccc2C2(c3ccc(O)cc3Oc3cc(O)ccc32)N1NC(=S)S` [S1]: the “excitation wavelength” value in series [1] is 480 nm.
On the same count and under the same terms, in the case of `O=[N+]([O-])c1ccc2c(/N=N/c3ccc4ccccc4c3O)c(O)cc(S(=O)(=O)[O-])c2c1.[Na+]` [S8] it was 280 nm; in that of `O=S(=O)([O-])c1cc(O)c(N=Nc2c(O)ccc3ccccc23)c2ccccc12.[Na+]` [S9], 280 nm.
Regarding `S=C(S)C1=C(NCc2ccccc2)CCC1` [formula XIV, 2-(benzylamino)cyclopent-1-enecarbodithioic acid], the melting point came out at 100 °C.
With `CCN(CC)c1ccc2c(c1)Oc1cc(N(CC)CC)ccc1C21c2ccccc2C(=O)N1OCc1cn(Cc2ccccc2)nn1` [S7], the “excitation wavelength” value in series [1] is reported as 445 nm.

(Values after patent publication US20240019450A1, “FLUORESCENT SENSORS” (THE UNIVERSITY OF SYDNEY, priority 2020, published 2024).)
